{
  "source": "patent US12679802B2",
  "about": "“Malonamides and their use as herbicides” (BASF SE, priority 2021, dated 2026)",
  "key": {"[1]": {"tested_on": "AVEFA", "assay": "greenhouse herbicidal test, post-emergence treatment", "format": "in vivo, Avena fatua", "conditions": "post-emergence method, scale from 0 to 100", "description": "(§1) The seeds of the test plants were sown separately for each species. For the pre-emergence treatment, the active ingredients, which had been suspended or emulsified in water, were applied directly after sowing by means of finely distributing nozzles. The containers were irrigated gently to promote germination and growth and subsequently covered with transparent plastic hoods until the test plants had rooted. This cover caused uniform germination of the test plants, unless this had been impaired by the active ingredients. For the post-emergence treatment, the test plants were first grown to a height of 3 to 15 cm, depending on the plant habit, and only then treated with the active ingredients which had been suspended or emulsified in water. For this purpose, the test plants were either sown directly and grown in the same containers, or they were first grown separately as seedlings and transplanted into the test containers a few days prior to treatment. Depending on the species, the test plants were kept at 10-25° C. or 20-35° C., respectively. The test period extended over 2 to 4 weeks. During this time, the test plants were tended, and their response to the individual treatments was evaluated. Evaluation was carried out using a scale from 0 to 100. 100 means no emergence of the test plants, or complete destruction of at least the aerial moieties, and 0 means no damage, or normal course of growth. A good herbicidal activity is given at values of 65 to 90 and a very good herbicidal activity is given at values of 90 to 100. The test plants used in the greenhouse experiments were of the following species: [table]"}, "[2]": {"tested_on": "APESV", "assay": "greenhouse herbicidal test, pre-emergence treatment", "format": "in vivo, Apera spica-venti", "conditions": "pre-emergence method, scale from 0 to 100", "description": "as §1, with “100 means no emergence of the test plants, or complete destruction of at least the aerial moieties, and 0 means no damage, or normal course of growth. A good herbicidal activity is given at values of 65 to 90 and a very good herbicidal activity is given at values of 90 to 100. The test plants used in the greenhouse experiments were of the following species: [table]” left out"}, "[3]": {"tested_on": "ECHCG", "assay": "greenhouse herbicidal test, pre-emergence treatment", "format": "in vivo, Echinocloa crus-galli", "conditions": "pre-emergence method, scale from 0 to 100", "description": "as §1, with “100 means no emergence of the test plants, or complete destruction of at least the aerial moieties, and 0 means no damage, or normal course of growth. A good herbicidal activity is given at values of 65 to 90 and a very good herbicidal activity is given at values of 90 to 100. The test plants used in the greenhouse experiments were of the following species: [table]” left out"}, "[4]": {"tested_on": "ALOMY", "assay": "greenhouse herbicidal test, post-emergence treatment", "format": "in vivo, Alopercurus myosuroides", "conditions": "post-emergence method, scale from 0 to 100", "description": "as §1, with “100 means no emergence of the test plants, or complete destruction of at least the aerial moieties, and 0 means no damage, or normal course of growth. A good herbicidal activity is given at values of 65 to 90 and a very good herbicidal activity is given at values of 90 to 100. The test plants used in the greenhouse experiments were of the following species: [table]” left out"}, "[5]": {"tested_on": "ABUTH", "assay": "greenhouse herbicidal test, post-emergence treatment", "format": "in vivo, Abutilon theophrasti", "conditions": "post-emergence method, application rate 0.250 kg/ha; scale from 0 to 100", "description": "as §1, with “100 means no emergence of the test plants, or complete destruction of at least the aerial moieties, and 0 means no damage, or normal course of growth. A good herbicidal activity is given at values of 65 to 90 and a very good herbicidal activity is given at values of 90 to 100. The test plants used in the greenhouse experiments were of the following species: [table]” left out"}, "[6]": {"tested_on": "AMARE", "assay": "greenhouse herbicidal test, post-emergence treatment", "format": "in vivo, Amaranthus retroflexus", "conditions": "post-emergence method, application rate 0.500 kg/ha; scale from 0 to 100", "description": "as §1, with “100 means no emergence of the test plants, or complete destruction of at least the aerial moieties, and 0 means no damage, or normal course of growth. A good herbicidal activity is given at values of 65 to 90 and a very good herbicidal activity is given at values of 90 to 100. The test plants used in the greenhouse experiments were of the following species: [table]” left out"}, "[7]": {"tested_on": "ECHCG", "assay": "greenhouse herbicidal test, post-emergence treatment", "format": "in vivo, Echinocloa crus-galli", "conditions": "post-emergence method, application rate 1.000 kg/ha; scale from 0 to 100", "description": "as §1, with “100 means no emergence of the test plants, or complete destruction of at least the aerial moieties, and 0 means no damage, or normal course of growth. A good herbicidal activity is given at values of 65 to 90 and a very good herbicidal activity is given at values of 90 to 100. The test plants used in the greenhouse experiments were of the following species: [table]” left out"}, "[8]": {"tested_on": "SETVI", "assay": "greenhouse herbicidal test, post-emergence treatment", "format": "in vivo, Setaria viridis", "conditions": "post-emergence method, application rate 1.000 kg/ha; scale from 0 to 100", "description": "as §1, with “100 means no emergence of the test plants, or complete destruction of at least the aerial moieties, and 0 means no damage, or normal course of growth. A good herbicidal activity is given at values of 65 to 90 and a very good herbicidal activity is given at values of 90 to 100. The test plants used in the greenhouse experiments were of the following species: [table]” left out"}},
  "data": [
    {"smiles": "COC(=O)CCCNC(=O)C(F)(F)C(=O)Nc1cc(Cl)cc(Cl)c1", "note": "[I.1, methyl 4-[[3-(3,5-dichloroanilino)-2,2-difluoro-3-oxo-propanoyl]amino]butanoate]", "values": [
      {"measurement": "herbicidal activity against AVEFA", "setting": "[1]; application rate 0.500 kg/ha", "value": "good (A good herbicidal activity is given at values of 65 to 90)"}
    ]},
    {"smiles": "COC(=O)C[C@H](C)NC(=O)C(F)(F)C(=O)Nc1cc(Cl)cc(Cl)c1", "note": "[I.2, methyl (3S)-3-[[3-(3,5-dichloroanilino)-2,2-difluoro-3-oxo-propanoyl]amino]butanoate]", "values": [
      {"measurement": "herbicidal activity against APESV", "setting": "[2]; application rate 0.500 kg/ha", "value": "good (A good herbicidal activity is given at values of 65 to 90)"}
    ]},
    {"smiles": "COC(=O)[C@@H]1CCC(NC(=O)C(F)(F)C(=O)Nc2cc(Cl)cc(Cl)c2)C1", "note": "(stereo partly drawn) [I.3, methyl (1R)-3-[[3-(3,5-dichloroanilino)-2,2-difluoro-3-oxo-propanoyl]amino]cyclopentanecarboxylate]", "values": [
      {"measurement": "herbicidal activity against ECHCG", "setting": "[3]; application rate 0.250 kg/ha", "value": "good (A good herbicidal activity is given at values of 65 to 90)"},
      {"measurement": "herbicidal activity against ALOMY", "setting": "[4]; application rate 0.250 kg/ha", "value": "very good (a very good herbicidal activity is given at values of 90 to 100)"},
      {"measurement": "herbicidal activity against ABUTH", "setting": "[5]", "value": "good (A good herbicidal activity is given at values of 65 to 90)"}
    ]},
    {"smiles": "COC(=O)C[C@H](C)NC(=O)C(F)C(=O)Nc1cc(Cl)cc(Cl)c1", "note": "(stereo partly drawn) [I.5, methyl (3S)-3-[[3-(3,5-dichloroanilino)-2-fluoro-3-oxo-propanoyl]amino]butanoate]", "values": [
      {"measurement": "herbicidal activity against ECHCG", "setting": "[3]; application rate 1.000 kg/ha", "value": "good (A good herbicidal activity is given at values of 65 to 90)"},
      {"measurement": "herbicidal activity against AVEFA", "setting": "[1]; application rate 1.000 kg/ha", "value": "good (A good herbicidal activity is given at values of 65 to 90)"},
      {"measurement": "herbicidal activity against ALOMY", "setting": "[4]; application rate 1.000 kg/ha", "value": "very good (a very good herbicidal activity is given at values of 90 to 100)"}
    ]},
    {"smiles": "COC(=O)CC(C)NC(=O)C(F)(C(=O)Nc1cc(Cl)cc(Cl)c1)C(C)O", "note": "(stereo not shown) [I.6]", "values": [
      {"measurement": "herbicidal activity against AMARE", "setting": "[6]", "value": "very good (a very good herbicidal activity is given at values of 90 to 100)"}
    ]},
    {"smiles": "COC(=O)CC(C)NC(=O)C(F)(Br)C(=O)Nc1cc(Cl)cc(Cl)c1", "note": "(stereo not shown) [I.12]", "values": [
      {"measurement": "herbicidal activity against AVEFA", "setting": "[1]; application rate 1.000 kg/ha", "value": "very good (a very good herbicidal activity is given at values of 90 to 100)"},
      {"measurement": "herbicidal activity against ECHCG", "setting": "[7]", "value": "very good (a very good herbicidal activity is given at values of 90 to 100)"},
      {"measurement": "herbicidal activity against SETVI", "setting": "[8]", "value": "very good (a very good herbicidal activity is given at values of 90 to 100)"}
    ]},
    {"smiles": "CC(CC(=O)OC(C)C)NC(=O)C(C)(F)C(=O)Nc1cc(F)cc(Cl)c1", "note": "(stereo not shown) [I.16]", "values": [
      {"measurement": "herbicidal activity against APESV", "setting": "[2]; application rate 0.250 kg/ha", "value": "good (A good herbicidal activity is given at values of 65 to 90)"}
    ]}
  ]
}
